According to patent US20260242359A1, “IRHOM2 INHIBITORS AND USES THEREOF” (NEW YORK SOCIETY FOR THE RELIEF OF THE RUPTURED AND …, priority 2023, published 2026):

Test system: PMA-induced release of endogenous IL-6R from human peripheral blood mononuclear cells (PBMCs)
Assay: Example 14: ELISA-based IL-6R release assay, PMA-induced, PBMCs from healthy donor
Assay type: cell-based
Details: 10 μM final concentration, PMA 25 ng/ml, delta Buffer stimulated vs unstimulated = 100% inhibition; for inhibition at 10 µM: Homo sapiens, PBMC
Description: In the following study, ELISA-based IL-6R release assays were performed to analyze the inhibitory effects of Compounds 1, 2, 3, 4, 5, and 7 on PMA-induced release of endogenous IL-6R from primary human material obtained from healthy donor using peripheral blood mononuclear cells (PBMCs). The ELISA-based IL-6R release assay that was used in this example is described below.
In brief, on day 1, Nunc black MaxiSorp® 96-well plates (Thermo Fisher Scientific, USA) were coated overnight with […] per well of mouse anti-human IL-6R capture antibody (provided as part of the DuoSet ELISA kit) at 2 μg/ml TBS at 4° C.
40,000 PBMCs from healthy donor (SciRhom GmbH, Germany) in 80 μl of normal growth medium were seeded in each well of Greiner CELLSTAR V-bottom 96-well plates (Greiner Bio-One, Germany) and pre-incubated with 20 μl per well of standard growth medium supplemented with Batimastat (BB94, Abcam, UK) at 50 μM as positive control (for a final concentration of 10 μM in the resulting 100 μl sample volume), compounds of the invention at 50 μM (for a final concentration of 10 μM in the resulting 100 μl sample volume) and in case of Buffer stimulated and unstimulated controls with DMSO (Carl Roth, Germany) at 50 μM (for a final concentration of 10 μM in the resulting 100 μl sample volume) at 37° C., 5% CO2 for 30 minutes. Subsequently, cells (except those for unstimulated controls) were stimulated with 20 μl per well of PMA (Sigma-Aldrich, USA) at 150 ng/ml in growth medium for a final concentration of 25 ng/ml at 37° C., 5% CO2 for 22 hours.
On day 2, the capture antibody solution was removed and MaxiSorp® plates were blocked with 300 μl per well of TBS, 1% BSA at room temperature for 2-3 hours. Meanwhile, the 96-well plates were centrifuged to pellet cells. In parallel, blocking buffer was removed from the MaxiSorp® plates and plates were washed 4 times with 350 μl TBS-T (Carl Roth, Germany) per well on a 96-head plate washer (Tecan Group, Switzerland). To avoid drying-up, 30 μl TBS were added to each well of the MaxiSorp® plates immediately, followed by the transfer of 70 μl cell-free supernatant per sample. Additionally, 100 μl recombinant human IL-6R protein (provided as part of the DuoSet ELISA kit) diluted in TBS at defined concentrations were added to the plate as standard references. Plates were incubated at room temperature for 2 hours. After 4 times washing with 350 μl TBS-T (Carl Roth, Germany) per well on a 96-head plate washer (Tecan Group, Switzerland) and careful removal of all buffer traces after the fourth cycle, 100 μl biotinylated goat anti-human IL-6R detection antibody (provided as part of the DuoSet ELISA kit) at 100 ng/ml TBS were added per well and, protected from direct light, plates were incubated at room temperature for 2 hours. After 4 times washing with 350 μl TBS-T (Carl Roth, Germany) per well on a 96-head plate washer (Tecan Group, Switzerland) and careful removal of all buffer traces after the fourth cycle, 100 μl streptavidin-AP (R&D Systems, USA) diluted 1:10,000 in TBS were added to each well and, again protected from direct light, plates were incubated at room temperature for 30 minutes. Following another round of 4 times washing with 350 μl TBS-T (Carl Roth, Germany) per well on a 96-head plate washer (Tecan Group, Switzerland) and careful removal of all buffer traces after the fourth cycle, 100 μl AttoPhos substrate solution (Promega, USA) per well was added for incubation in the dark at room temperature for 1 hour. Using an infinite M1000 (Tecan Group, Switzerland) microplate reader, the fluorescence of each well was collected at an excitation wavelength of 435 nm and an emission wavelength of 555 nm.
The delta between Buffer stimulated and Buffer unstimulated was defined 100% inhibition.

| Compound | inhibition of PMA-induced release of IL-6R from PBMCs from healthy donor (22 hours) [%] | inhibition at 10 µM (22 h) [%] | inhibition at 10 µM (22 hours) [%] |
| --- | --- | --- | --- |
| CNC(=O)[C@H](Cc1ccccc1)NC(=O)[C@H](CC(C)C)[C@H](CSc1cccs1)C(=O)NO [Batimastat, reference compound] | 98.5 | 100 |  |
| CCC(=O)NCCc1c(/C=C2/C(=O)NC(=O)N(c3ccc(C)cc3C)C2=O)[nH]c2ccccc12 [Compound 1] |  |  | 112 |
| CCOC(=O)c1ccc(Nc2nc3nonc3n3nnnc23)cc1 [Compound 2] |  | 111 |  |
| O=C(c1c(Cl)cccc1Cl)N1CCC(Cc2ccc(F)cc2)CC1 [Compound 3] |  | 0 |  |
| Cc1c(C(=O)NCc2cccs2)sc(=O)n1Cc1ccccc1 [Compound 4] |  | 6.2 |  |
| Cc1c(C(=O)NCc2cccs2)sc(=O)n1Cc1ccccc1F [Compound 5] |  | 6.5 |  |
| Cc1c(C(=O)NCc2ccco2)sc(=O)n1Cc1ccccc1F [Compound 7] |  | 59.1 |  |
